Each compound was assayed against T1, FXR ligand binding domain (Homo sapiens, UniProt Q96RI1) (assay: Radioligand binding assay (scintillation proximity radioligand displacement)).
T1 sequence (Q96RI1 211-483 limits assumed): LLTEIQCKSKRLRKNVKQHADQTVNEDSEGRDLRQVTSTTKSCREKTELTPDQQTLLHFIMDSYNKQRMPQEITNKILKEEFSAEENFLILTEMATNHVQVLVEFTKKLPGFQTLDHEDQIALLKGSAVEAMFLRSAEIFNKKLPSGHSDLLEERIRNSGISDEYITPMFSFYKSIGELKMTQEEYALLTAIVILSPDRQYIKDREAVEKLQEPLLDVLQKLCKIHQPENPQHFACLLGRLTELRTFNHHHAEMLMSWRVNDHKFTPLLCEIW
Procedure: Radioligand Binding Assay
Binding of test substances to the FXR ligand binding domain was assessed in a radioligand displacement assay. The assay was performed in a buffer consisting of 50 mM Hepes, pH 7.4, 10 mM NaCl, 5 mM MgCl2. […] All binding assays were performed in 96-well plates and the amount of bound ligand was measured on a Packard TopCount using OptiPlates (Packard). Dose response curves were performed within a range of concentration from 6×10^−9 M to 2.5×10^−5 M.
An IC50 of 28.7 µM was found for `COC(=O)c1cc(C)c(OCC(c2c3c(nn2-c2ccc(Cl)cc2)CCC3)C2CCCCC2)c(C)c1` (stereo not drawn) [Example 1, 4-{2-[2-(4-Chloro-phenyl)-2,4,5,6-tetrahydro-cyclopentapyrazol-3-yl]-2-cyclohexyl-ethoxy}-3,5-dimethyl-benzoic acid methyl ester] in this work.
An IC50 of 1.3 µM was found for `N#Cc1ccc(OCC(c2c3c(nn2-c2ccc(Cl)cc2)CCC3)C2CCCCC2)c(F)c1` (stereo not drawn) [Example 3, 4-{2-[2-(4-Chloro-phenyl)-2,4,5,6-tetrahydro-cyclopentapyrazol-3-yl]-2-cyclohexyl-ethoxy}-3-fluoro-benzonitrile] in this work.
An IC50 of 3.3 µM was found for `O=C(NC1CCCCC1)C(c1c2c(nn1-c1ccc(Cl)cc1)CCC2)C1CCCCC1` (stereo not drawn) [Example 4, 2-[2-(4-Chloro-phenyl)-2,4,5,6-tetrahydro-cyclopentapyrazol-3-yl]-2,N-dicyclohexyl-acetamide] in this work.
An IC50 of 0.092 µM was found for `Fc1cc(-c2nnn[nH]2)ccc1OCC(c1c2c(nn1-c1ccc(Cl)cc1)CCC2)C1CCCCC1` (stereo not drawn) [Example 5, 2-(4-Chloro-phenyl)-3-{1-cyclohexyl-2-[2-fluoro-4-(2H-tetrazol-5-yl)-phenoxy]-ethyl}-2,4,5,6-tetrahydro-cyclopentapyrazole] in this work.
An IC50 of 0.603 µM was found for `O=C(O)c1ccc(NC(=O)C(c2c3c(nn2-c2ccc(Cl)cc2)CCC3)C2CCCCC2)c(F)c1` (stereo not drawn) [Example 6, 4-{2-[2-(4-Chloro-phenyl)-2,4,5,6-tetrahydro-cyclopentapyrazol-3-yl]-2-cyclohexyl-acetylamino}-3-fluoro-benzoic acid] in this work.
An IC50 of 0.052 µM was found for `O=C(O)c1ccc(OCC(c2c3c(nn2-c2ccc(Cl)cc2)CCC3)C2CCCCC2)nc1` (stereo not drawn) [Example 7, 6-{2-[2-(4-Chloro-phenyl)-2,4,5,6-tetrahydro-cyclopentapyrazol-3-yl]-2-cyclohexyl-ethoxy}-nicotinic acid] in this work.
An IC50 of 1.1 µM was found for `O=C(O)c1ccc(SCC(c2c3c(nn2-c2ccc(Cl)cc2)CCC3)C2CCCCC2)cc1` (stereo not drawn) [Example 8, 4-{2-[2-(4-Chloro-phenyl)-2,4,5,6-tetrahydro-cyclopentapyrazol-3-yl]-2-cyclohexyl-ethylsulfanyl}-benzoic acid] in this work.
An IC50 of 21.4 µM was found for `CCOC(=O)C(C)(C)Oc1ccc(NC(=O)C(c2c3c(nn2-c2ccc(Cl)cc2)CCCCC3)C2CCCCC2)c(F)c1` (stereo not drawn) [Example 9, 2-(4-{2-[2-(4-Chloro-phenyl)-2,4,5,6,7,8-hexahydro-cycloheptapyrazol-3-yl]-2-cyclohexyl-acetylamino}-3-fluoro-phenoxy)-2-methyl-propionic acid ethyl ester] in this work.
An IC50 of 1.3 µM was found for `CC(C)(Oc1ccc(NC(=O)C(c2c3c(nn2-c2ccc(Cl)cc2)CCCCC3)C2CCCCC2)c(F)c1)C(=O)O` (stereo not drawn) [Example 10, 2-(4-{2-[2-(4-Chloro-phenyl)-2,4,5,6,7,8-hexahydro-cycloheptapyrazol-3-yl]-2-cyclohexyl-acetylamino}-3-fluoro-phenoxy)-2-methyl-propionic acid] in this work.
An IC50 of 2.4 µM was found for `O=C(NC1CCCCC1)C(c1c2c(nn1-c1ccc(Cl)cc1)CCCCC2)C1CCCCC1` (stereo not drawn) [Example 11, 2-[2-(4-Chloro-phenyl)-2,4,5,6,7,8-hexahydro-cycloheptapyrazol-3-yl]-2,N-dicyclohexyl-acetamide] in this work.
An IC50 of 7 µM was found for `COC(=O)c1ccc(NC(=O)C(c2c3c(nn2-c2ccc(Cl)cc2)CCCCC3)C2CCCCC2)c(F)c1` (stereo not drawn) [Example 12, 4-{2-[2-(4-Chloro-phenyl)-2,4,5,6,7,8-hexahydro-cycloheptapyrazol-3-yl]-2-cyclohexyl-acetylamino}-3-fluoro-benzoic acid methyl ester] in this work.
An IC50 of 1.7 µM was found for `O=C(O)c1ccc(NC(=O)C(c2c3c(nn2-c2ccc(Cl)cc2)CCCCC3)C2CCCCC2)c(F)c1` (stereo not drawn) [Example 13, 4-{2-[2-(4-Chloro-phenyl)-2,4,5,6,7,8-hexahydro-cycloheptapyrazol-3-yl]-2-cyclohexyl-acetylamino}-3-fluoro-benzoic acid] in this work.
An IC50 of 21.3 µM was found for `N#Cc1ccc(OCC(c2c3c(nn2-c2ccc(Cl)cc2)CCCCC3)C2CCCCC2)c(F)c1` (stereo not drawn) [Example 14, 4-{2-[2-(4-Chloro-phenyl)-2,4,5,6,7,8-hexahydro-cycloheptapyrazol-3-yl]-2-cyclohexyl-ethoxy}-3-fluoro-benzonitrile] in this work.
An IC50 of 0.53 µM was found for `Cc1cc(C(=O)O)cc(C)c1OCC(c1c2c(nn1-c1ccc(Cl)cc1)CCCCC2)C1CCCCC1` (stereo not drawn) [Example 15, 4-{2-[2-(4-Chloro-phenyl)-2,4,5,6,7,8-hexahydro-cycloheptapyrazol-3-yl]-2-cyclohexyl-ethoxy}-3,5-dimethyl-benzoic acid] in this work.
An IC50 of 0.155 µM was found for `Fc1cc(-c2nnn[nH]2)ccc1OCC(c1c2c(nn1-c1ccc(Cl)cc1)CCCCC2)C1CCCCC1` (stereo not drawn) [Example 16, 2-(4-Chloro-phenyl)-3-{1-cyclohexyl-2-[2-fluoro-4-(1H-tetrazol-5-yl)-phenoxy]-ethyl}-2,4,5,6,7,8-hexahydro-cycloheptapyrazole] in this work.

Reference: US8252826B2, “Cyclopentyl- and cycloheptylpyrazoles” (Hoffmann-La Roche Inc., priority 2010, dated 2012)
